Data published in patent EP0466038A1, “Water-dispersible polyene antifungal complexes” (priority 1990, dated 1992).

Experiment: Serum concentration of amphotericin B in rabbits after rectal administration of suppositories (HPLC)
Conditions: rabbit, in vivo, 10 mg/kg
Method: The base Witepsol H-15 was melted at 45° C in a temperature-controlled bath. Equal portions of amphotericin B and dipotassium glycyrrhizinate were added and the mixture was quickly poured into suppository molds and allowed to solidify at room temperature. The target potency was 20 mg amphotericin B/g suppository.
This procedure was repeated with ratios of 1:4 and 1:9 w/w amphotericin B:dispotassium glycyrrhizinate.
These suppositories were tested on white male rabbits weighing from 2.6 to 3.2 kg that received water freely but otherwise fasted for 24 hours prior to administration. Amphotericin B was dosed in 10 mg (activity)/kg and positioned about 2 cm into the rectum. Blood samples of about 1.5 ml were collected from an ear vein of each rabbit at appropriate intervals and evaluated according to procedures in Nilsson-Ehle et al., "Quantitation of amphotericin B with use of High-Pressure Liquid Chromatography," J. Infectious Diseases, Vol. 135, No. 3 (1977).

- concentration at 1 h: 1 ng/mL
- concentration at 3 h: 2.3 ng/mL
- concentration at 5 h: 1.5 ng/mL
- concentration at 7 h: 1 ng/mL
- concentration at 9 h: 3.3 ng/mL
- concentration at 11 h: 2.7 ng/mL
- concentration at 24 h: 1.3 ng/mL
SMILES: C[C@@H]1[C@H](O)[C@@H](C)/C=C/C=C/C=C/C=C/C=C/C=C/C=C/[C@H](O[C@@H]2O[C@H](C)[C@@H](O)[C@H](N)[C@@H]2O)C[C@@H]2O[C@](O)(C[C@@H](O)C[C@@H](O)[C@H](O)CC[C@@H](O)C[C@@H](O)CC(=O)O[C@H]1C)C[C@H](O)[C@H]2C(=O)O [Amph., amphotericin B]
